Molecular target: Induced myeloid leukemia cell differentiation protein Mcl-1 (Homo sapiens) (UniProt Q07820)
Assay: Mcl-1/Noxa binding inhibitor potency, dose response, biochemical, TR-FRET (AID 1417)
Details: Mcl-1/Noxa peptide interaction, cell-free TR-FRET (terbium/rhodamine), 2 h; measured here: absolute IC50

Sequence of Induced myeloid leukemia cell differentiation protein Mcl-1 (Homo sapiens) (Q07820 whole entry, looked up): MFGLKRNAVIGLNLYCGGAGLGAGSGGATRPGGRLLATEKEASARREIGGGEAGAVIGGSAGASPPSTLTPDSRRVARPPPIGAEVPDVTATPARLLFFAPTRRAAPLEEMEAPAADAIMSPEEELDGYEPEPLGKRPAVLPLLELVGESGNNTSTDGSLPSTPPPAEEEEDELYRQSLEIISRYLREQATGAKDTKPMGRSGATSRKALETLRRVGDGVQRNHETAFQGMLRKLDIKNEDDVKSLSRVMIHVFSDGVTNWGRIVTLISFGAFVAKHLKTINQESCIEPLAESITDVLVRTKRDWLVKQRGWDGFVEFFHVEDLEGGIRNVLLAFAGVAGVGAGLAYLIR

Row | SMILES | IC50 [µM]
1 | CCCc1ccc(/C=C2\C(=O)c3ccccc3C(O)=C2C(=O)OCC)cc1 | > 54
2 | Clc1cccc(N/N=C/c2ccc(N3CCOCC3)s2)c1 | < 0.4
3 | O=C(N/N=C/c1ccc(-c2ccccc2C(=O)O)o1)c1cccs1 | 7.88
4 | CC(=O)c1sc2nc(CSc3nnnn3-c3ccccc3)[nH]c(=O)c2c1C | 0.93
5 | CCCCOC(=O)Nc1ccc(N(C)C)cc1 | 52.5
6 | Cc1[nH]n(-c2ccc(Br)cc2)c(=O)c1C=Nc1ccc(S(=O)(=O)Nc2nccs2)cc1 | 8.08
7 | Cc1ccc(NC(=O)CN2C(=O)S/C(=C/c3ccc(-c4cc(C(=O)O)ccc4C)o3)C2=O)cc1C | 2.85
8 | CN=c1scc(-c2cccs2)n1/N=C/c1ccc(O)c(O)c1O | < 0.4
9 | O=C(O)c1ccc2nc(-c3ccco3)c(-c3ccco3)nc2c1 | 1.63
10 | Cc1cc(/C=N/n2c(COc3ccccc3C)nc3ccccc3c2=O)c(O)c([N+](=O)[O-])c1 | 4.86
11 | O=[N+]([O-])c1c(NCCO)cc(Sc2nc3ccccc3s2)c2nonc12 | > 54
12 | Cc1cc(C(=O)OCC(=O)Nc2sc3c(c2C#N)CCC(C)C3)c2ccccc2n1 (stereo not drawn) | 4.27
13 | Cc1ccc(C(=O)OCC(=O)Nc2ccc(N(C)C)cc2)cc1NC(=O)c1ccco1 | > 54
14 | Oc1ccc(N2CCN(c3ncnc4sc(-c5ccccc5)cc34)CC2)cc1 | 1.15
15 | COc1cc(/C=N\Nc2nc(-c3ccc(C)cc3)c(NC(C)=O)s2)ccc1O | > 54
16 | CCN1C(=O)/C(=C\c2ccc(-c3ccc([N+](=O)[O-])cc3OC)o2)SC1=Nc1cccc(C(=O)O)c1 | < 0.4
17 | CCN(CC)c1ccc(NC(=O)c2ccccc2OCC(=O)OC)cc1 | > 54
18 | CC(C)c1ccc(Nc2nnc(SCC(=O)c3nnc(-c4ccccc4)o3)s2)cc1 | 1.92
19 | O=C(O)c1cc(-c2ccc(/C=C3\NC(=O)N(c4ccccc4)C3=O)o2)ccc1Cl | > 54
20 | O=C(Nc1ccc(Cl)cc1)Nc1nnc(/C=C/c2ccccc2)s1 | 4.06
21 | O=c1[nH]c(=S)[nH]c(O)c1N=Nc1ccc(-c2ccccc2)cc1[N+](=O)[O-] | 2.99
22 | O=C(N/N=C/c1cccc(F)c1)c1cc(-c2ccco2)nc2ccccc12 | < 0.4

Row | SMILES | IC50 [µM]
23 | O=C(Nc1cccc(S(=O)(=O)NC2=NCCCCC2)c1)c1cc(-c2ccco2)nc2ccccc12 | < 0.4
24 | COCCN=c1scc(-c2cccs2)n1/N=C/c1ccc(O)c(O)c1O | 4.33
25 | CCC(C)NCCCOc1c(C)cc(C)cc1Br (stereo not drawn) | > 54
26 | Oc1ccc(/C=N/Nc2ccnc3cc(Cl)ccc23)cc1O | 1.99
27 | C/C(=N\NC(=O)c1cccc(N/N=C(\C)c2ccco2)c1)c1ccco1 | 2.88
28 | Cc1cc(C)c(S(=O)(=O)/N=C2/C=C(Sc3ncn[nH]3)C(=O)c3ccccc32)cc1C | < 0.4
29 | Cc1nc(N)sc1-c1csc(Nc2ncccn2)n1 | 3.98
30 | O=C(Nc1ccc(N2CCOCC2)cc1)Nc1ccc(Cl)c(Cl)c1 | > 54
31 | Cc1cccc(OCCCC(=O)Nc2ccc(N(C)C)cc2)c1 | 1.8
32 | CC1(C)CC(=O)C(C=Nc2cccc(/N=C/C3=C(O)CC(C)(C)CC3=O)n2)=C(O)C1 | > 54
33 | CN1C(=O)/C(=C2\SC(=S)N(CCCCCC(=O)O)C2=O)c2ccccc21 | 2.85
34 | CNc1ccc(Br)cc(C(=O)/C=C/c2cccc(OC)c2)c1=O | 4.9
35 | Nc1ccc(O)c2c1C(=O)c1ccccc1C2=O | 1.88
36 | O=C(N=Nc1c(O)[nH]c2ccc([N+](=O)[O-])cc12)c1cc(-c2ccccc2Cl)nc2ccccc12 | < 0.4
37 | O/N=C1/CCCSc2ccccc21 | > 54
38 | COc1ccc(N=C2NC(=O)/C(=C\C=C\c3ccco3)S2)cc1 | 1.48
39 | Cc1cc(C(=O)N/N=C/c2cc(N=Nc3ccccc3)ccc2O)n[nH]1 | 10.9
40 | O=C1NC(=O)N(Cc2ccc(F)cc2)C(=O)/C1=C\c1ccc([N+](=O)[O-])s1 | 7.45
41 | O=C1NC(=S)NC(=O)C1=Cc1cccn1-c1ccc(O)cc1 | 3.36
42 | Cc1oc(-c2ccc(Cl)cc2)cc1-c1nn2c(-c3ccoc3C)nnc2s1 | > 54
43 | CCCCCc1nc2c(=O)[nH]c3ccccc3c2o1 | > 54
